Test results taken from ChEMBL document CHEMBL1142360 (J Med Chem, 2008).

How the values were obtained:
PC-3 [1] = assay: Antiproliferative activity against human PC3 cells at 10 uM after 5 days; format: functional
PC-3 [2] = assay: Antiproliferative activity against human PC3 cells; format: functional, cell-based
[3] = Partition coefficient, log P of the compound; format: physicochemical; details: octanol/water

COc1ccc(C2(c3ccc(C#N)c(C(F)(F)F)c3)NC(=O)N(c3ccc(C#N)c(C(F)(F)F)c3)C2=O)cc1 (configuration not stated)
Activity (PC-3 [1]): 76%
IC50 (PC-3 [2]): 5.6 µM
logP [3]: 5.7

C[C@](O)(CS(=O)(=O)c1ccc(F)cc1)C(=O)Nc1ccc(C#N)c(C(F)(F)F)c1 [(R)-BICALUTAMIDE]
Activity (PC-3 [1]): 15%
logP [3]: 3.4

CC1(C)NC(=O)N(c2ccc([N+](=O)[O-])c(C(F)(F)F)c2)C1=O [NILUTAMIDE]
Activity (PC-3 [1]): 11%
logP [3]: 3.2
